Source: patent US20170234853A1, “METHOD FOR DETERMINING THE STRUCTURAL PROFILE OF A FIBRIN CLOT REFLECTING THE STABILITY THEREOF, IN ORDER TO PREDICT THE RISK OF BLEEDING, THROMBOSIS OR RETHROMBOSIS” (DIAGNOSTICA STAGO, priority 2014, published 2017)

System: fibrin clot
Test: Structural profile of fibrin clot, Protocol C on STA-R with tissue factor and plasminogen activator (TF+t-PA)
Format: biochemical
Protocol: Protocol C (With t-PA, Method on STA-R® with Tissue Factor and Plasminogen Activator):
To 8 cuvettes of the STA-R® Evolution Expert Series automated device (Stago), are added, simultaneously by the instrument: • 200 μl of a sample of pure plasma, • 50 μl of a [TF 2 to 5 pM final concentration+PL 4 μM final concentration+tPA 0.1 to 0.2 μg/ml final concentration] mixture.
The automated device agitates by means of the arm, and carries out an incubation for 300 seconds at 37° C.
It then adds 50 μl of CaCl2 at a final concentration of 16.7 mM, and agitates by means of the needle of the initiating reagent.
Finally, the automated device measures the number of protofibrils at the 2 wavelengths of 540 nm and 780 nm as a function of time for 30 minutes.
To 8 cuvettes of the STA-R® Evolution Expert Series automated device (Stago), are added, simultaneously by the instrument: • 200 μl of sample of pure plasma from 9 patients with normal hemostatis results, of a frozen plasma deficient in PAI-1, of 3 control plasmas at 0, 20 and 40 AU/ml of PAI-1, of a protein S-depleted plasma, of a TFPI-depleted plasma and of 3 plasmas with an overload of rivaroxaban at 0, 100 and 200 ng/ml, • 50 μl of a [TF 2 to 5 pM final concentration+PL 4 μM final concentration+t-PA 150 ng/ml] mixture.
It then adds 50 μl of CaCl2 at a final concentration of 16.7 mM, and agitates by means of the needle.

O=C(NC[C@H]1CN(c2ccc(N3CCOCC3=O)cc2)C(=O)O1)c1ccc(Cl)s1 [rivaroxaban] was tested, and the “downward slope of the protofibril plateau” value (plasma containing rivaroxaban, TF + t-PA 150 ng/ml) was “all the greater the faster the lysis” and the “protofibril plateau (duration), reflecting the stability of the clot” value (plasmas with an overload of rivaroxaban at 0, 100 and 200 ng/ml, TF 2 to 5 pM, t-PA 150 ng/ml, 30 minutes) was “shortened proportionally to the concentration”.
